In ChEMBL document CHEMBL1145432, “Antitumor activity, X-ray crystal structure, and DNA binding properties of thiocoraline A, a natural bisintercalating thiodepsipeptide” (2007):
Bridge positions count the residues as written; N and C are the ends. Square brackets hold non-standard residues; d marks the D form. Peptide text beside a SMILES is read from it. I, II: the chains in the order shown. * marks the point of attachment. Quinaldoyl(3-OH) = O=C(c1nc2ccccc2cc1O)*; NMeC = CN[C@@H](CS)C(=O)O

How the values were obtained:
Type in all cases: functional
LNCaP = experiment: Cytotoxicity against human LNCaP cells after 72 hrs by SRB assay
DU-145 = experiment: Cytotoxicity against human DU145 cells after 72 hrs by SRB assay; conditions: DU-145, 72 h
[1] = Cytotoxicity against human IGROV cells after 72 hrs by SRB assay
SK-BR-3 = experiment: Cytotoxicity against human SK-BR3 cells after 72 hrs by SRB assay; conditions: SK-BR-3, 72 h
SK-MEL-28 = experiment: Cytotoxicity against human SK-MEL-28 cells after 72 hrs by SRB assay; conditions: SK-MEL-28, 72 h
A549 = experiment: Cytotoxicity against human A549 cells after 72 hrs by SRB assay; conditions: A549, 72 h
K562 = experiment: Cytotoxicity against human K562 cells after 72 hrs by SRB assay; conditions: K562, 72 h
PANC-1 = experiment: Cytotoxicity against human PANC1 cells after 72 hrs by SRB assay; conditions: PANC-1, 72 h
HT-29 = experiment: Cytotoxicity against human HT29 cells after 72 hrs by SRB assay; conditions: HT-29, 72 h
LoVo [2] = experiment: Cytotoxicity against human LoVo cells after 72 hrs by SRB assay
LoVo [3] = experiment: Cytotoxicity against doxorubicin resistant human LoVo cells after 72 hrs by SRB assay
HeLa = experiment: Cytotoxicity against human HeLa cells after 72 hrs by SRB assay
[4] = read-out: LC50 (the source's name)

CSC[C@H]1C(=O)SC[C@@H](NC(=O)c2nc3ccccc3cc2O)C(=O)NCC(=O)N(C)[C@H]2CSSC[C@@H](C(=O)N1C)N(C)C(=O)CNC(=O)[C@H](NC(=O)c1nc3ccccc3cc1O)CSC(=O)[C@H](CSC)N(C)C2=O [THIOCORALINE A] (I: {Quinaldoyl(3-OH)}-[dC]G[NMeC][NMeC](Me) / II: {Quinaldoyl(3-OH)}-[dC]G[NMeC][NMeC](Me); thioester I:1-II:C, I:C-II:1; disulfide I:3-II:3)
GI50 (LNCaP): 3 nM
TGI (LNCaP): 5 nM
CC50 (LNCaP; [4]): 14.2 nM
GI50 (DU-145): 1.9 nM
TGI (DU-145): 6.4 nM
CC50 (DU-145; [4]): 1480 nM
GI50 [1]: 1.9 nM
TGI [1]: 11.1 nM
CC50 [1, 4]: 1260 nM
GI50 (SK-BR-3): 2.2 nM
TGI (SK-BR-3): 8.9 nM
CC50 (SK-BR-3; [4]): 30.8 nM
GI50 (SK-MEL-28): 3 nM
TGI (SK-MEL-28): 14 nM
CC50 (SK-MEL-28; [4]): 50.3 nM
GI50 (A549): 4.8 nM
TGI (A549): 19.3 nM
CC50 (A549; [4]): 95.6 nM
GI50 (K562): 1.3 nM
TGI (K562): 4.6 nM
CC50 (K562; [4]): 9.2 nM
GI50 (PANC-1): 2.5 nM
TGI (PANC-1): 82.5 nM
CC50 (PANC-1; [4]): 378 nM
GI50 (HT-29): 3.9 nM
TGI (HT-29): 73.6 nM
CC50 (HT-29; [4]): 6290 nM
GI50 (LoVo [2]): 7.2 nM
TGI (LoVo [2]): 263 nM
CC50 (LoVo [2]; [4]): 284 nM
GI50 (LoVo [3]): 212 nM
TGI (LoVo [3]): 2380 nM
GI50 (HeLa): 1.3 nM
TGI (HeLa): 4.7 nM
CC50 (HeLa; [4]): 22.6 nM
